For the assay, the target named is T1, human cannabinoid CB2 receptor (Homo sapiens, UniProt P34972).
T1 construct: expressed in transfected cells; host or cells: Saccharomyces cerevisiae strain MMY23
As to the kind of experiment: Cannabinoid CB2 receptor agonist activity, yeast reporter assay (FDGlu fluorescence).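 On Emax: 100% equals maximal response of reference agonist HU210.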 The assay is classed as cell-based. The conditions noted are these: for Emax: read-out: efficacy value (Emax) at the cloned human cannabinoid CB2 receptor. (In a reporter assay the amount or activity of a reporter protein is the signal.)

Where only a bound is given, the exact number is not on record here.

T1 sequence (P34972 whole entry): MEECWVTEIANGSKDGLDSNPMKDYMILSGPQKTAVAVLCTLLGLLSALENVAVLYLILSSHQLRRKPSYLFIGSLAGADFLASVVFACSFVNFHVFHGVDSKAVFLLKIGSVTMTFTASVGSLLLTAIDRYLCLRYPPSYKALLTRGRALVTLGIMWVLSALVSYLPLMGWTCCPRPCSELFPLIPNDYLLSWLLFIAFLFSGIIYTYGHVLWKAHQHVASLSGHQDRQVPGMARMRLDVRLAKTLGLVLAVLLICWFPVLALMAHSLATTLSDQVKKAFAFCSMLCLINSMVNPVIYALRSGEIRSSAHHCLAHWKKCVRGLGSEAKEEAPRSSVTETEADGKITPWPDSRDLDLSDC

`CC(C)CNC(=O)c1cnc(Nc2cc(Cl)cc(Cl)c2)cc1C(F)(F)F` [Example 151, N-Isobutyl-6-(3,5-dichloro-phenylamino)-4-trifluoro-methyl-nicotinamide]: the EC50 – broadly, the concentration at which the effect is half-maximal – is below 300 nM and the maximal effect (Emax) (usually the size of the effect at its maximum, as opposed to the concentration needed) was above 50%.
The matching figures for `O=C(NCC1CC1)c1cnc(Nc2cc(Cl)cc(Cl)c2)cc1C(F)(F)F` [Example 152, N-Cyclopropylmethyl-6-(3,5-dichloro-phenylamino)-4-tri-fluoromethyl-nicotinamide]: below 300 nM and above 50%.
On the same counts, the results for `CC(C)CNC(=O)c1cnc(Nc2ccc(Cl)c(Cl)c2)cc1C(F)(F)F` [Example 153, N-Isobutyl-6-(3,4-dichloro-phenylamino)-4-trifluoro-methyl-nicotinamide] are below 300 nM and above 50%.
On the same counts, the results for `O=C(NC1CCC1)c1cnc(Nc2ccc(Cl)c(Cl)c2)cc1C(F)(F)F` [Example 154, N-Cyclobutyl-6-(3,4-dichloro-phenylamino)-4-trifluoro-methyl-nicotinamide] are below 300 nM and above 50%.
For the compound `O=C(NCC1CCOCC1)c1cnc(Nc2ccc(Cl)c(Cl)c2)cc1C(F)(F)F` [Example 155, N-(Tetrahydropyran-4-yl-methyl)-6-(3,4-dichloro-phenylamino)-4-trifluoro-methyl-nicotinamide], the EC50 is below 300 nM and the Emax was above 50%.
The matching figures for `O=C(NCC1CCCC1)c1cnc(Nc2ccc(Cl)c(Cl)c2)cc1C(F)(F)F` [Example 156, N-Cyclopentylmethyl-6-(3,4-dichloro-phenylamino)-4-tri-fluoromethyl-nicotinamide]: below 300 nM and above 50%.
On the same counts, the results for `O=C(NCC1CCC1)c1cnc(Nc2ccc(Cl)c(Cl)c2)cc1C(F)(F)F` [Example 157, N-Cyclobutylmethyl-6-(3,4-dichloro-phenylamino)-4-tri-fluoromethyl-nicotinamide] are below 300 nM and above 50%.
For the compound `O=C(NCC1CC1)c1cnc(Nc2ccc(Cl)c(Cl)c2)cc1C(F)(F)F` [Example 158, N-Cyclopropylmethyl-6-(3,4-dichloro-phenylamino)-4-tri-fluoromethyl-nicotinamide], the EC50 was below 300 nM and the Emax was above 50%.
The matching figures for `O=C(NCC1CCCCC1)c1cnc(Nc2ccc(Cl)c(Cl)c2)cc1C(F)(F)F` [Example 159, N-Cyclohexylmethyl-6-(3,4-dichloro-phenylamino)-4-tri-fluoromethyl-nicotinamide]: below 300 nM and above 50%.
With `O=C(NCC1CCC1)c1cnc(Nc2ccc(Cl)cc2F)cc1C(F)(F)F` [Example 160, N-Cyclobutylmethyl-6-(2-fluoro-4-chloro-phenyl-amino)-4-trifluoromethyl-nicotinamide], the EC50 is below 300 nM and the Emax is above 50%.
The matching figures for `O=C(NCC1CCCC1)c1cnc(Nc2ccc(Cl)cc2F)cc1C(F)(F)F` [Example 161, N-Cyclopentylmethyl-6-(2-fluoro-4-chloro-phenyl-amino)-4-trifluoromethyl-nicotinamide]: below 300 nM and above 50%.
The matching figures for `O=C(NCC1CCOCC1)c1cnc(Nc2ccc(Cl)cc2F)cc1C(F)(F)F` [Example 162, N-(Tetrahydropyran-4-yl-methyl)-6-(2-fluoro-4-chloro-phenylamino)-4-trifluoro-methyl-nicotinamide]: below 300 nM and above 50%.
On the same counts, the results for `O=C(NCC1CCC1)c1cnc(Nc2ccc(F)cc2Cl)cc1C(F)(F)F` [Example 163, N-Cyclobutylmethyl-6-(2-Chloro-4-fluoro-phenyl-amino)-4-trifluoromethyl-nicotinamide] are below 300 nM and above 50%.
As to `O=C(NCC1CCCC1)c1cnc(Nc2ccc(F)cc2Cl)cc1C(F)(F)F` [Example 164, N-Cyclopentylmethyl-6-(2-Chloro-4-fluoro-phenyl-amino)-4-trifluoromethyl-nicotinamide], the EC50 was below 300 nM and the maximal effect (Emax) was above 50%.
On the same counts, the results for `O=C(NCC1CCOCC1)c1cnc(Nc2ccc(F)cc2Cl)cc1C(F)(F)F` [Example 165, N-(Tetrahydropyran-4-yl-methyl)-6-(2-chloro-4-fluoro-phenylamino)-4-trifluoro-methyl-nicotinamide] are below 300 nM and above 50%.
Consider `O=C(NCC1CCC1)c1cnc(Nc2ccc(F)cc2F)cc1C(F)(F)F` [Example 166, N-Cyclobutylmethyl-6-(2,4-difluoro-phenylamino)-4-tri-fluoromethyl-nicotinamide], for which the EC50 is below 300 nM and the Emax was above 50%.
`O=C(NCC1CCCC1)c1cnc(Nc2ccc(F)cc2F)cc1C(F)(F)F` [Example 167, N-Cyclopentylmethyl-6-(2,4-difluoro-phenylamino)-4-tri-fluoromethyl-nicotinamide]: the EC50 is below 300 nM and the Emax is above 50%.
As to `COc1ccc(Cl)cc1Nc1cc(C(F)(F)F)c(C(=O)NCC2CCC2)cn1` [Example 169, N-Cyclobutylmethyl-6-(2-methoxy-5-chloro-phenyl-amino)-4-trifluoromethyl-nicotinamide], the Emax is above 50%.
With `O=C(NCC1CCOCC1)c1cnc(Nc2cc(Cl)ccc2O)cc1C(F)(F)F` [Example 170, N-(Tetrahydropyran-4-yl-methyl)-6-(2-hydroxy-5-chloro-phenylamino)-4-trifluoromethyl-nicotinamide], the EC50 was below 300 nM and the Emax was above 50%.
In the case of `Cc1cc(Cl)ccc1Nc1cc(C(F)(F)F)c(C(=O)NCC2CCCCC2)cn1` [Example 171, N-Cyclohexylmethyl-6-(2-methyl-4-chloro-phenyl-amino)-4-trifluoromethyl-nicotinamide], the EC50 is below 300 nM and the Emax was above 50%.
With `Cc1cc(Cl)ccc1Nc1cc(C(F)(F)F)c(C(=O)NCC2CCOCC2)cn1` [Example 172, N-(Tetrahydropyran-4-yl-methyl)-6-(2-methyl-4-chloro-phenylamino)-4-trifluoro-], the Emax is above 50%.
`O=C(NCC1CCCCCC1)c1cnc(Nc2cc(Cl)cc(Cl)c2)cc1C(F)(F)F` [Example 175, N-Cycloheptylmethyl-6-(3,5-dichloro-phenyiamino)-4-trifluoromethyl-nicotinamide]: the Emax is above 50%.
Turning to `O=C(NCC1CCOCC1)c1ccc(Nc2cccc(Cl)c2)nc1C(F)(F)F` [Example 204, 6-(3-Chloro-phenylamino)-N-(tetrahydro-pyran-4-ylmethyl)-2-trifluoromethyl-nicotinamide], the EC50 was below 300 nM and the Emax is above 50%.
The matching figures for `CC(C)c1nc(Nc2cccc(Cl)c2)ccc1C(=O)NCC1CCOCC1` [Example 208, 6-(3-Chloro-phenylamino)-2-isopropyl-N-(tetrahydro-pyran-4-ylmethyl)-nicotinamide]: below 300 nM and above 50%.
On the same counts, the results for `CC(C)c1nc(Nc2cccc(Cl)c2)ccc1C(=O)NCC1CCS(=O)(=O)C1` (stereo not shown) [Example 209, 6-(3-Chloro-phenylamino)-N-(1,1-dioxo-tetrahydrothiophen-3-ylmethyl)-2-isopropyl-nicotinamide] are below 300 nM and above 50%.
On the same counts, the results for `CC(C)c1nc(Nc2cccc(Cl)c2)ccc1C(=O)NCC1CCCC1` [Example 210, 6-(3-Chloro-phenylamino)-N-cyclopentylmethyl-2-isopropyl-nicotinamide] are below 300 nM and above 50%.
For `CC(C)c1nc(Nc2cccc(Cl)c2)ccc1C(=O)NCC1CCCCC1` [Example 211, 6-(3-Chloro-phenylamino)-N-cyclohexylmethyl-2-isopropyl-nicotinamide], the EC50 was below 300 nM and the Emax is above 50%.
The matching figures for `CC(C)c1nc(Nc2ccc(Cl)cc2Cl)ccc1C(=O)NCC1CCC1` [Example 212, 6-(2,4-Dichloro-phenylamino)-N-cyclobutylmethyl-2-isopropyl-nicotinamide]: below 300 nM and above 50%.
On the same counts, the results for `CC(C)c1nc(Nc2ccc(Cl)cc2Cl)ccc1C(=O)NCC1CCCC1` [Example 213, 6-(2,4-Dichloro-phenylamino)-N-cyclopentylmethyl-2-isopropyl-nicotinamide] are below 300 nM and above 50%.
Turning to `CC(C)c1nc(Nc2ccc(Cl)cc2Cl)ccc1C(=O)NCC1CCOCC1` [Example 214, 6-(2,4-Dichloro-phenylamino)-N-(tetrahydro-pyran-4-ylmethyl)-2-isopropyl-nicotinamide], the EC50 was below 300 nM and the Emax was above 50%.
On the same counts, the results for `CC(C)c1nc(Nc2ccc(Cl)cc2Cl)ccc1C(=O)NCC1CCS(=O)(=O)C1` (stereo not shown) [Example 215, 6-(2,4-Dichloro-phenylamino)-N-(1,1-tetrahydrothiophen-3-ylmethyl)-2-isopropyl-nicotinamide] are below 300 nM and above 50%.
On the same counts, the results for `CC(C)c1nc(Nc2cccc(F)c2)ccc1C(=O)NCC1CCC1` [Example 216, 6-(3-Fluoro-phenylamino)-N-cyclobutylmethyl-2-isopropyl-nicotinamide] are below 300 nM and above 50%.
On the same counts, the results for `CC(C)c1nc(Nc2cccc(F)c2)ccc1C(=O)NCC1CCCC1` [Example 217, 6-(3-Fluoro-phenylamino)-N-cyclopentylmethyl-2-isopropyl-nicotinamide] are below 300 nM and above 50%.
With `CC(C)c1nc(Nc2cccc(F)c2)ccc1C(=O)NCC1CCOCC1` [Example 218, 6-(3-Fluoro-phenylamino)-N-(tetrahydro-pyran-4-ylmethyl)-2-isopropyl-nicotinamide], the EC50 is below 300 nM and the Emax is above 50%.
The matching figures for `CC(C)c1nc(Nc2cccc(F)c2)ccc1C(=O)NCC1CCS(=O)(=O)C1` (stereo not shown) [Example 219, 6-(3-Fluoro-phenylamino)-N-(1,1-dioxo-tetrahydrothiophen-3-ylmethyl)-2-isopropyl-nicotinamide]: below 300 nM and above 50%.

For the origin of these results see patent US20060240048A1 (priority 2002, published 2006).
